PubChem BioAssay (NCI)
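All cell lines were grown in 96-well plates and treated with compound for 48 hours. Definition used: TGI = concentration required for complete inhibition of growth.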

Assays:
Test in all cases: NCI tumour cell line growth inhibition, 48 h
[1] = test system: 786-0 renal
[2] = test system: UO-31 renal
[3] = test system: OVCAR-5 ovarian
[4] = test system: M19-MEL melanoma
[5] = test system: SK-OV-3 ovarian
[6] = test system: DMS 273 small cell lung
[7] = test system: MALME-3M melanoma
[8] = test system: LXFL 529 NSCLC
[9] = test system: RPMI-8226 leukemia
[10] = test system: HOP-18 NSCLC
[11] = test system: COLO 205 colon
[12] = test system: HT29 colon
[13] = test system: RXF 393 renal
[14] = test system: ACHN renal
[15] = test system: XF 498 CNS
[16] = test system: SF-539 CNS
[17] = test system: DLD-1 colon
[18] = test system: HOP-62 NSCLC
[19] = test system: IGROV1 ovarian
[20] = test system: SK-MEL-2 melanoma
[21] = test system: SF-295 CNS
[22] = test system: OVCAR-8 ovarian
[23] = test system: A549 NSCLC
[24] = test system: RXF-631 renal
[25] = test system: NCI-H226 lung
[26] = test system: UACC-257 melanoma
[27] = test system: LOX IMVI melanoma
[28] = test system: M14 melanoma
[29] = test system: SN12C renal
[30] = test system: KM20L2 colon
[31] = test system: K-562 leukemia
[32] = test system: KM12 colon
[33] = test system: NCI-H23 lung
[34] = test system: HL-60(TB) leukemia
[35] = test system: SW-620 colon
[36] = test system: UACC-62 melanoma
[37] = test system: CAKI-1 renal
[38] = test system: NCI-H460 lung
[39] = test system: CCRF-CEM leukemia
[40] = test system: HCC-2998 colon
[41] = test system: HCT-15 colon
[42] = test system: SF-268 CNS
[43] = test system: EKVX NSCLC
[44] = test system: SK-MEL-5 melanoma
[45] = test system: NCI-H522 lung
[46] = test system: SK-MEL-28 melanoma
[47] = test system: TK-10 renal
[48] = test system: SNB-75 CNS
[49] = test system: MOLT-4 leukemia
[50] = test system: DMS 114 small cell lung
[51] = test system: OVCAR-3 ovarian
[52] = test system: U251 CNS
[53] = test system: HOP-92 NSCLC
[54] = test system: P388 leukemia
[55] = test system: A498 renal
[56] = test system: HCT-116 colon
[57] = test system: P388/ADR leukemia
[58] = test system: SNB-19 CNS
[59] = test system: MCF7 breast
[60] = test system: SN12K1 renal
[61] = test system: SNB-78 CNS
[62] = test system: NCI/ADR-RES ovarian
[63] = test system: OVCAR-4 ovarian

In the case of `O=S1c2ccccc2N=C(c2ccc3ccccc3c2)CC1C1=CC=CCC1` (stereo not drawn), the TGI [1] is reported as 29.8 µM, the TGI [2] is reported as 26.7 µM and the TGI [3] is reported as 40.6 µM. It also gave a TGI [4] of 31.2 µM, a TGI [5] of 50.4 µM and a TGI [6] of 41 µM. It also gave a TGI [7] of 62.3 µM, a TGI [8] of 29.7 µM and a TGI [9] of 36.9 µM. It also gave a TGI [10] of over 100 µM, a TGI [11] of 37.9 µM and a TGI [12] of 31.4 µM. For the same molecule, the TGI [13] was 30.4 µM, the TGI [14] was 42.6 µM and the TGI [15] was 31.6 µM. The TGI [16] was 45.3 µM, the TGI [17] was 26 µM and the TGI [18] was 40.4 µM. The TGI [19] was 28.9 µM, the TGI [20] was 40.5 µM and the TGI [21] was 39.6 µM. The TGI [22] was 49.4 µM, the TGI [23] was 91.2 µM and the TGI [24] was 37 µM. The TGI [25] was 43.9 µM, the TGI [26] was 34.8 µM and the TGI [27] was 30.8 µM. For the same molecule, the TGI [28] was 35.6 µM, the TGI [29] was 36.9 µM and the TGI [30] was 37.2 µM. For the same molecule, the TGI [31] was 27.4 µM, the TGI [32] was 32.2 µM and the TGI [33] was 30.6 µM. For the same molecule, the TGI [34] was 36.8 µM, the TGI [35] was 36.7 µM and the TGI [36] was 34.5 µM. It also gave a TGI [37] of 29.6 µM, a TGI [38] of 54.5 µM and a TGI [39] of 23.6 µM. It also gave a TGI [40] of 26.2 µM, a TGI [41] of 35.7 µM and a TGI [42] of over 100 µM. It also gave a TGI [43] of 42.8 µM, a TGI [44] of 30.4 µM and a TGI [45] of 33.2 µM. It also gave a TGI [46] of 33.1 µM, a TGI [47] of 51.7 µM and a TGI [48] of 50.6 µM. It also gave a TGI [49] of 40.5 µM, a TGI [50] of 33.3 µM and a TGI [51] of 31.8 µM.
Work on `O=C(O)CCCCCCC[C@@H]1S[C@H]1CCCCCCO` yielded a TGI [52] of over 100 µM, a TGI [2] of over 100 µM and a TGI [3] of over 100 µM. The TGI [4] was over 100 µM, the TGI [5] was over 100 µM and the TGI [6] was over 100 µM. It also gave a TGI [7] of over 100 µM, a TGI [9] of over 100 µM and a TGI [10] of over 100 µM. For the same molecule, the TGI [53] was over 94.4 µM, the TGI [11] was over 100 µM and the TGI [12] was over 100 µM. The TGI [54] was over 100 µM, the TGI [13] was over 100 µM and the TGI [15] was over 100 µM. For the same molecule, the TGI [16] was over 100 µM, the TGI [17] was over 100 µM and the TGI [18] was over 100 µM. For the same molecule, the TGI [19] was over 100 µM, the TGI [20] was over 100 µM and the TGI [55] was over 100 µM. The TGI [21] was over 100 µM, the TGI [22] was over 100 µM and the TGI [23] was over 100 µM. For the same molecule, the TGI [25] was over 100 µM, the TGI [26] was over 100 µM and the TGI [27] was over 100 µM. The TGI [29] was over 100 µM, the TGI [30] was over 100 µM and the TGI [31] was over 100 µM. It also gave a TGI [32] of over 100 µM, a TGI [56] of over 100 µM and a TGI [33] of over 100 µM. It also gave a TGI [34] of over 100 µM, a TGI [35] of over 100 µM and a TGI [36] of over 100 µM. It also gave a TGI [57] of over 100 µM, a TGI [37] of over 100 µM and a TGI [38] of over 100 µM. The TGI [39] was over 100 µM, the TGI [40] was over 100 µM and the TGI [41] was over 100 µM. It also gave a TGI [42] of over 100 µM, a TGI [58] of over 100 µM and a TGI [59] of over 100 µM. The TGI [43] was over 100 µM, the TGI [60] was over 100 µM and the TGI [44] was over 100 µM. The TGI [61] was over 100 µM, the TGI [45] was over 100 µM and the TGI [46] was over 100 µM. The TGI [62] was over 100 µM, the TGI [48] was over 100 µM and the TGI [49] was over 100 µM. The TGI [50] was over 100 µM, the TGI [51] was over 100 µM and the TGI [63] was over 100 µM.
